Assay results taken from US10154988B2, “Methods and compositions for treating schizophrenia” (The Johns Hopkins University, priority 2012, dated 2018).

Assays:
[1] = tested on: Age-Impaired (AI) Long-Evans rats; assay: Morris Water Maze retention trial, levetiracetam in aged-impaired rats; type: in vivo, rat
Procedure: The MWM apparatus consists of a large, circular pool (diameter 1.83 m; height, 0.58 m) filled with water (27° C.) that is made opaque through the addition of non-toxic pigment or some other substance. In the typical “hidden platform” version of the test, rats are trained to find a camouflaged white escape platform (height, 34.5 cm) that is positioned in the center of one quadrant of the maze about 1.0 cm below the water surface. This platform can be retracted to the bottom of the tank or raised to its normal position from outside the maze during behavioral testing. The location of the platform remains constant from trial to trial. Because there are no local cues that mark the position of the platform, the rat's ability to locate it efficiently from any starting position at the perimeter of the pool depends on using information surrounding the maze. The maze is surrounded by black curtains to which white patterns are affixed to provide a configuration of spatial cues. A second platform (height 37.5 cm), with its surface painted black is elevated 2 cm above the water surface during cue training to control for factors unrelated to cognition. The behavior of a rat in the pool is recorded by a camera that is suspended 2.5 m above the center of the pool. The camera is connected to a video tracking system (HVS Image Advanced Tracker VP200) and a PC computer running HVS software developed by Richard Baker of HVS Image, Hampton, UK. The MWM protocol is optimized for sensitivity to the effects of aging on cognition and for measures of reliable individual differences within the aged population of out-bred Long-Evans rats (Gallagher et al. Behav. Neurosci. 107:618-626, (1993)). Rats receive three trials per day for 8 consecutive days, using a 60 sec inter-trial interval. On each training trial, the rat is released into the maze from one of four equally spaced starting positions around the perimeter of the pool. The starting position varies from trial to trial, thus preventing the use of a response strategy (e.g., always turning left from the start location to locate the escape platform). […] Every sixth trial consists of a probe trial to assess the development of spatial bias in the maze. During these trials, the rat swims with the platform being refracted to the bottom of the pool for 30 sec, at which time the platform is raised to its normal position for completion of the escape trial. At the completion of the protocol using the hidden platform, rats are assessed for cue learning using the visible platform. The location of this platform varies from trial to trial in a single session of 6 training trials. […]

[2] = cited from earlier work
[3] = 10 mg/kg/day i.p., retention trial

Structure (SMILES): CC[C@@H](C(N)=O)N1CCCC1=O [levetiracetam, (2S)-2-(2-oxopyrrolidin-1-yl) butanamide]
- performance (time in target quadrant) versus vehicle ([1]; 5 mg/kg/day i.p., retention trial): does not significantly improve
- memory as compared to vehicle-treated controls [1, 3]: significantly improved memory
- time spent in the target annulus [1, 3]: effectiveness of the 10 mg/kg/day levetiracetam treatment is also seen
- time spent in the target quadrant, percentage of total swimming time ([1]; 10 mg/kg/day i.p., retention trial 24 h after two training days, vehicle approximately 25%): approximately 35%
- plasma half-life expected in elderly ([2]; elderly, decreased renal function): 9 to 10 h
- time of peak plasma concentrations ([2]; following oral administration): about 1 hour
- plasma half-life ([2]; humans): approximately 7±1 hour
- time to steady state ([2]; multiple twice-daily dosing): 2 days
- absorption after oral administration ([2]; oral): rapidly and almost completely absorbed
- effect of food on bioavailability ([2]; oral): not affected by food
